Experimental data reported in publication PMC7904550, “Application of grouping and read-across for the evaluation of parabens of different chain lengths with a particular focus on endocrine properties” (Archives of Toxicology, 2021).
Like-named read-outs stand apart in the source and are kept apart here. Marks after values point to notes of the source that are not given here.

Assays:
[1] = test system: human oestrogen receptor α; parameters: method as in Watanabe et al. 2013; conditions: ref Watanabe et al. 2013, cited from earlier work
in vivo = conditions: for concentration at 1 h / Tmax / AUC(0-t) / Cmax: Wistar, rat, in vivo; for Tmax / AUC(0-t) / Cmax: po; for AUC(0-t) / Cmax / AUC0-1 h/AUC0–t / C1h/Cmax / Clast / tlast: parent compound
Description: These studies were conducted similarly to OECD TG 417 applying 500 and 1000 mg/kg body weight (bw) test item via oral gavage to 10 males and 10 females per dose group. Focus of the toxicokinetic evaluation was on the measurement of the serum concentrations of the parent compounds and their (common) major metabolite p-hydroxybenzoic acid by […] in order to assess the systemic uptake and elimination of the parent compounds and this major metabolite [see also ECHA ([2017a])]. The limit of quantification was determined as 10 ng/mL for all parabens, and as 130 ng/mL for p-hydroxybenzoic acid. […] On account of these major aims, investigations of the faeces and urine were not included in the toxicokinetics screening studies.

[2] = Grouping and read-across of NOAEL (ECHA RAAF Scenario 5; analogue approach); conditions: for NOAEL for systemic repeated-dose toxicity and DART: predicted by read-across from the respective paraben (analogue approach)
Excerpt: The strength of evidence for the respective AEs was scored by the assessment options indicated in the RAAF ranging from Score 5 (acceptable with high confidence) to Score 1 (not acceptable) (ECHA [2017b]).

[3] = parameters: method as in Hansch et al. (1995); conditions: ref Hansch et al. (1995); cited from earlier work
rabbits = test system: rabbits; parameters: method as in ECHA dissemination portal; conditions: acute dermal exposure, ref ECHA dissemination portal; cited from earlier work
rats [4] = conditions: 5,000, 15,000 and 40,000 ppm in feed, ref Hubbard et al. 2020, cited from earlier work
Wistar rats = test system: Wistar rats; parameters: method as in Zhang et al. 2014; conditions: 400 and 1000 mg/kg bw/day oral gavage; ref Zhang et al. 2014; cited from earlier work
male rats = test system: male rats; parameters: method as in Hoberman et al. 2008; conditions: up to 10,000 ppm, corresponding to 1088 ± 68 mg/kg bw/day; ref Hoberman et al. 2008; cited from earlier work
oestrogen receptors = test system: oestrogen receptors; parameters: method as in Byford et al. 2002; conditions: ref Byford et al. 2002; cited from earlier work
[5] = ref Dymicky and Huhtanen (1979), cited in CIR (2008); cited from earlier work
[6] = ref Yalkowsky and He (2003); cited from earlier work
rats [7] = conditions: acute oral, ref ECHA dissemination portal, cited from earlier work
rats [8] = conditions: cited from earlier work
rats [9] = conditions: cited from earlier work; remark: listed apart in the source
rats [10] = conditions: cited from earlier work; remark: listed apart in the source
bacteria = conditions: ref ECHA dissemination portal, cited from earlier work
rats [11] = conditions: cited from earlier work; remark: listed apart in the source
[12] = Octanol–water partition coefficient (Log Kow); assay type: physicochemical; conditions: 23 °C, OECD TG 107
Excerpt: (§1) Generally, these parabens have very similar physico-chemical properties.

[13] = Acid dissociation constant (pKa); assay type: physicochemical
Excerpt: as §1

mammalian cells = conditions: OECD 476; ref ECHA dissemination portal; cited from earlier work
[14] = cited from earlier work
[15] = test system: human oestrogen receptor β; parameters: method as in Watanabe et al. 2013; conditions: among 12 linear n-alkyl parabens C1 to C12; ref Watanabe et al. 2013; cited from earlier work
[16] = sodium salt, read-across from the respective paraben

C[C@]12CC[C@@H]3c4ccc(O)cc4CC[C@H]3[C@@H]1CC[C@@H]2O [17β-estradiol, reference compound]
Concentration of receptor effects ([1]; receptor subtype not stated): 2.5 × 10^–12

CCCCOC(=O)c1ccc(O)cc1 [Butyl paraben, Butyl 4-hydroxybenzoate]
concentration at 1 h (in vivo; female, 500 mg/kg): 31.5 ng/mL
concentration at 1 h (in vivo; female, 1000 mg/kg): 59.1 ng/mL
Tmax (in vivo; female, 500 mg/kg): 4.8 min
AUC(0-t) (in vivo; female, 500 mg/kg, AUC0-1 h): 149 ng·h/mL
AUC(0-t) (in vivo; female, 500 mg/kg, AUC0–t): 336 ng·h/mL
Cmax (in vivo; female, 500 mg/kg): 741 ng/mL
Tmax (in vivo; female, 1000 mg/kg): 4.8 min
AUC(0-t) (in vivo; female, 1000 mg/kg, AUC0-1 h): 191 ng·h/mL
AUC(0-t) (in vivo; female, 1000 mg/kg, AUC0–t): 404 ng·h/mL
Cmax (in vivo; female, 1000 mg/kg): 854 ng/mL
concentration at 1 h (in vivo; male, 500 mg/kg): 161 ng/mL
concentration at 1 h (in vivo; male, 1000 mg/kg): 373 ng/mL
AUC(0-t) (in vivo; male, 500 mg/kg, AUC0-1 h): 300 ng·h/mL
AUC(0-t) (in vivo; male, 500 mg/kg, AUC0–t): 705 ng·h/mL
Cmax (in vivo; male, 500 mg/kg): 1770 ng/mL
AUC(0-t) (in vivo; male, 1000 mg/kg, AUC0-1 h): 860 ng·h/mL
AUC(0-t) (in vivo; male, 1000 mg/kg, AUC0–t): 1580 ng·h/mL
Cmax (in vivo; male, 1000 mg/kg): 6520 ng/mL
Cmax (in vivo; male, 1000 mg/kg, males): 7000 ng/mL
AUC0-1 h/AUC0–t (in vivo; 500 mg/kg, female): 44%
C1h/Cmax (in vivo; 500 mg/kg, female): 4.3%
Clast (in vivo; 500 mg/kg, female): 23.9 ng/mL
tlast (in vivo; 500 mg/kg, female): 8.0 h
AUC0-1 h/AUC0–t (in vivo; 500 mg/kg, male): 43%
C1h/Cmax (in vivo; 500 mg/kg, male): 9.1%
Clast (in vivo; 500 mg/kg, male): 49.2 ng/mL
tlast (in vivo; 500 mg/kg, male): 8.0 h
AUC0-1 h/AUC0–t (in vivo; 1000 mg/kg, female): 47%
C1h/Cmax (in vivo; 1000 mg/kg, female): 6.9%
Clast (in vivo; 1000 mg/kg, female): 23.6 ng/mL
tlast (in vivo; 1000 mg/kg, female): 8.0 h
AUC0-1 h/AUC0–t (in vivo; 1000 mg/kg, male): 54%
C1h/Cmax (in vivo; 1000 mg/kg, male): 5.7%
Clast (in vivo; 1000 mg/kg, male): 18.4 ng/mL
tlast (in vivo; 1000 mg/kg, male): 8.0 h
NOAEL for repeated-dose toxicity and DART ([2]; extrapolation, appears justifiable): 1000 mg/kg bw/day
Log Kow [3]: 3.54 [d]
NOAEL (rabbits): [b] A further acute toxicity study was conducted as dermal exposure study in rabbits yielding NOAEL > 2000 mg/kg bw
Adverse alterations of fertility, fecundity, pubertal attainment or any reproductive parameters (rats [4]; parent, first, second generation): no association
Liver findings (rats [4]): exposure-dependent increases in liver weight and incidences of non-neoplastic liver lesions
Epididymal sperm count and daily sperm production (Wistar rats): dose-dependently reduced epididymal sperm count and daily sperm production
Effects in male rats (male rats): no effects
Rank of oestrogen receptor activation among shorter-chained parabens (oestrogen receptors): the most activation
pKa [5]: 8.37 [c]
Water solubility [6]: Insoluble [e]
LD50 (rats [7]; OECD 423, read-across from iso-butyl paraben): > 2000 (read across; OECD 423; 2018) [a, b] mg/kg bw
Skin irritation/skin corrosion classification (rats [8]; read-across from iso-butyl paraben, OECD 439, ref ECHA dissemination portal): Irritating (read-across; OECD 439; 2016) [a]
Eye irritation/eye corrosion classification (rats [9]; read-across from iso-butyl paraben, OECD 437, ref ECHA dissemination portal): Ser. eye damage (read-across; OECD 437; 2016) [a]
Skin sensitisation classification (rats [10]; read-across from iso-butyl paraben, OECD 429, ref ECHA dissemination portal): Not sensitising (read-across; OECD 429; 2016) [a]
Mutagenicity in bacteria classification (bacteria; read-across from iso-butyl paraben, OECD 471): Not mutagenic (read-across; OECD 471; 2016) [a]
NOAEL, point-of-departure (rats [11]; derived from Zhang et al. (2014), ref CIR 2019): 160 mg/kg bw/day
NOEL (rats [11]; juvenile rats, subcutaneous, 17 days (PND 2-18), single dose tested (Fisher et al. 1999), ref SCCS 2010): 2 mg/kg bw/day

CCOC(=O)c1ccc([O-])cc1.[Na+] [Na-ethyl paraben, Sodium ethyl 4-HBA]
Log Kow ([12]; pH 10.4): -0.14 at 23 °C, pH 10.4 (OECD TG 107)
NOAEL for systemic repeated-dose toxicity and DART [2]: 1000 mg/kg bw/day
LD50 (rats [7]; rats, OECD 401): 3100 OECD 401; 1982) mg/kg bw
Skin irritation/skin corrosion classification (rats [8]; rat, in vivo): Not irritating (OECD 404; 1981)
Eye irritation/eye corrosion classification (rats [9]; rat, in vivo): Irritating (OECD 405; 1982)
Skin sensitisation classification (rats [10]; rat, in vivo): Not sensitising (read-across from ethyl paraben)
Mutagenicity in bacteria classification (bacteria; [16]): Not mutagenic (read-across from ethyl paraben)

COC(=O)c1ccc([O-])cc1.[Na+] [Na-methyl paraben, Sodium methyl 4-HBA]
pKa [13]: 8.4 (OECD TG 112)
Mutagenicity in bacteria classification (bacteria; OECD 471): Not mutagenic [a] (OECD 471; 2012)
Mutagenicity in mammalian cells classification (mammalian cells): Not mutagenic [a] (OECD 476; 2012)

CCCOC(=O)c1ccc([O-])cc1.[Na+] [Na-propyl paraben, Sodium propyl 4-HBA]
Log Kow ([12]; pH 10.8): 0.27 at 23 °C, pH 10.8 (OECD TG 107)
NOAEL for systemic repeated-dose toxicity and DART [2]: 1000 mg/kg bw/day
LD50 (rats [7]; rats, OECD 401): > 5000 OECD 401; 1982) mg/kg bw
Skin irritation/skin corrosion classification (rats [8]; rat, in vivo): Not irritating (OECD 404; 1982)
Eye irritation/eye corrosion classification (rats [9]; rat, in vivo): Serious eye damage (OECD 405; 1983)
Mutagenicity in bacteria classification (bacteria; [16]): Not mutagenic (read-across from propyl paraben)

CCCCCCCOC(=O)c1ccc(O)cc1 [heptyl paraben]
Concentration of highest potency in activating the receptor ([1]; among 12 linear n-alkyl parabens C1 to C12): 10^–7 M

O=C(O)c1ccc(O)cc1 [p-hydroxybenzoic acid]
Systemic toxicity and DART ([14]; ref ECHA registration dossier 15944): no systemic toxicity and no DART
Endocrine activity ([14]; substance evaluation, REACH Article 48, ref ECHA 2014): does not exhibit any endocrine activity

CCCCCOC(=O)c1ccc(O)cc1 [pentyl paraben]
Concentration of highest potency in activating the receptor [15]: 10^–8 M
